Source: patent US20100016232A1, “Treatment Of Inflammatory Diseases With Mammal Beta Defensins” (Novozymes A/S, priority 2008, published 2010)
Where no end group is shown, it is not given here.

What was measured:
PBMC = PBMC viability, MTS assay; format: cell-based, human; settings: 24 h
Protocol: Peripheral blood was drawn from healthy volunteers (with approval from the relevant ethical committee in Denmark). Heparinized blood was diluted 1/1 v/v with RPMI and were subjected to Ficoll density centrifugation within 2 h of drawing. Plasma was collected from the top from individual donors and was kept on ice until it was used at 2% in the culture medium (autologous culture medium). Isolated PBMC were resuspended in autologous culture medium and seeded in 96-well culture plates with 255.000 cells per well in a total of 200 μl. […] The concentrations used for stimulation were optimized on 3 different donors in initial experiments, for LPS two different concentrations were used to be sure to be on a cytokine level that is possible to modulate. In some experiments PBMC were treated with Dexamethason and Indomethacin alone and together with LPS or LTA as a control on downregulation of inflammatory cytokines. The supernatants were collected after incubation at 37° C. for 24 hours, and stored at −80° C. until cytokine measurement. Viability was measured by Alamar Blue (Biosource, DALL 1100) in all experiments and in some cases also by MTS (Promega) according to manufacturer's instruction and was in some experiments also judged by counting of the cells by a Nucleocounter.

[1] = system: TNF production in supernatant from a human monocyte cell line (MUTZ-3); assay: TNF production, human monocyte cell line MUTZ-3; format: cell-based
Protocol: The human myeloid leukaemia-derived cell line MUTZ-3 (DSMZ, Braunschweig, Germany) was maintained in a-MEM (Sigma M4526), supplemented with 20% [volume/volume (v/v)] fetal bovine serum (Sigma F6178) and 40 ng/ml rhGM-CSF (R&D Systems 215-GM-050).
Cytokine production in supernatants was measured by flow cytometry with a human inflammation cytometric bead array (CBA) according to manufacturer's instructions (BD) on a FACSarray flow cytometer. The following cytokines were measured: IL-8, IL-1β, IL-10, TNF, IL-12 p70, IL-6. In some experiments, cytokines were measured by ELISA kits from R&D systems (IL-10, TNF-α, IL-1β) according to the manufacturer' instruction.

[2] = system: IL-23, human CD14+ monocyte-derived dendritic cells; assay: IL-23 in supernatants of human CD14+ monocyte-derived dendritic cells, ELISA; format: cell-based
Protocol: The DCs were prepared according to a modified protocol originally described by Romani et al. Briefly, peripheral blood mononuclear cells (PBMCs) were purified from buffy coats of healthy donors by centrifugation over a Ficoll-pague (GE-healthcare) gradient. Monocytes were isolated from PBMC by positive selection of CD14+ cells by magnetic beads (Dynal, Invitrogen) according to the manufacturer's instructions. The CD14+ monocytes were cultured in 6-well plates in RPMI/2% Human AB Serum recombinant human recombinant granulocyte-macrophage colony-stimulating factor (GM-CSF, 20 ng/ml) and IL-4 (20 ng/ml) (PeproTech) for 6 days, replenishing the medium/cytokines after 2 and 5 days.
Cell culture supernatants were collected and stored at −80° C. Amounts of IL-23 was measured by standard sandwich ELISA using commercially available antibodies and standards according to the manufacturer's protocols (eBioscience).

[3] = system: DSS-induced colitis in the mouse; assay: 10-day DSS-induced colitis, colon histological score (Example 5); format: in vivo; settings: day 10
Source text: Animals were divided into 5 experimental groups.
Their colons were removed and their length and weight measured after exclusion of the caecum.
Two sections (proximal and distal) of colon were taken from each animal and preserved in neutral buffered formalin for subsequent histological analysis (haematoxylin and eosin staining) according to the following scoring system:
Two sections (proximal and distal) of colon were taken from each animal, processed for histological analysis (haematoxylin and eosin staining) and scored by a blind observer according to the histological scoring system described above.

## hBD2: human beta defensin 2, SEQ ID NO:2; produced recombinantly in E. coli (Example 1); hBD2 of Tables 16-18 was prepared by chemical synthesis (GIGDPVTCLKSGAICHPVFCPRRYKQIGTCGLPGTKCCKKP; ends and bridges not checked; cysteine pairing not given here; listed as Homo sapiens)
PBMC; LPS 0.6 ng/ml, hBD2 1 μg/ml
  Viability, MTS: 1.5 Abs 490 nm
PBMC; LPS 0.6 ng/ml, hBD2 10 μg/ml
  Viability, MTS: 2.0 Abs 490 nm
PBMC; LPS 0.6 ng/ml, hBD2 100 μg/ml
  Viability, MTS: 1.6 Abs 490 nm
PBMC; LPS 20 ng/ml, hBD2 1 μg/ml
  Viability, MTS: 1.6 Abs 490 nm
PBMC; LPS 20 ng/ml, hBD2 10 μg/ml
  Viability, MTS: 1.8 Abs 490 nm
PBMC; LPS 20 ng/ml, hBD2 100 μg/ml
  Viability, MTS: 1.9 Abs 490 nm
PBMC; Medium, hBD2 1 μg/ml
  Viability, MTS: 1.3 Abs 490 nm
PBMC; Medium, hBD2 10 μg/ml
  Viability, MTS: 1.5 Abs 490 nm
PBMC; Medium, hBD2 100 μg/ml
  Viability, MTS: 1.2 Abs 490 nm
[1]; LPS 1.5 μg/ml, hBD2 1 μg/ml
  TNF: 6.61 pg/mL
[1]; LPS 1.5 μg/ml, hBD2 10 μg/ml
  TNF: 3.93 pg/mL
[1]; LPS 1.5 μg/ml, hBD2 100 μg/ml
  TNF: 3.93 pg/mL
[1]; LTA 1.5 μg/ml, hBD2 1 μg/ml
  TNF: 1.75 pg/mL
[1]; LTA 1.5 μg/ml, hBD2 10 μg/ml
  TNF: 3.76 pg/mL
[1]; LTA 1.5 μg/ml, hBD2 100 μg/ml
  TNF: 2.64 pg/mL
[1]; Medium, hBD2 1 μg/ml
  TNF: 2.21 pg/mL
[1]; Medium, hBD2 10 μg/ml
  TNF: 2.60 pg/mL
[1]; Medium, hBD2 100 μg/ml
  TNF: 0.00 pg/mL
[2]; LPS (100 ng/ml) and IFN-γ (20 ng/ml), hBD2 1 μg/ml
  IL-23: 3833 pg/mL
[2]; LPS (100 ng/ml) and IFN-γ (20 ng/ml), hBD2 10 μg/ml
  IL-23: 3308 pg/mL
[2]; LPS (100 ng/ml) and IFN-γ (20 ng/ml), hBD2 30 μg/ml
  IL-23: 3042 pg/mL
[2]; LPS (100 ng/ml) and IFN-γ (20 ng/ml), hBD2 100 μg/ml
  IL-23: 2145 pg/mL
[2]; Unstimulated, hBD2 10 μg/ml
  IL-23: 451 pg/mL
[3]; 0.1 mg/kg i.v. daily
  Histology Score Distal Colon: 3.67
[3]; 1 mg/kg i.v. daily
  Histology Score Distal Colon: 4.13
[3]; 10 mg/kg i.v. daily
  Histology Score Distal Colon: 4.78
